In one test the target is T1, SALL4 ZNF1-2 (Homo sapiens, UniProt Q96SW2+Q9UJQ4).
T1 construct: IKZF1Δ, IKZF2Δ, GSPT1 and SALL4 ZnF1-2 were subcloned; expressed in transfected cells; host or cells: Flp-In 293
Nature of the test: Cellular degradation assay, eGFP-SALL4 ZnF1-2 fusion with mCherry reporter in Flp-In 293 cells. It is filed as cell-based. The note with it: 5 h incubation, n=1. Here is the method: IKZF1Δ, IKZF2Δ, GSPT1 and SALL4 ZnF1-2 were subcloned into mammalian pcDNA5/FRT Vector (Ampicillin and Hygromycin B resistant) modified to contain MCS-eGFP-P2A-mCherry. Stable cell lines expressing eGFP-protein fusion and mCherry reporter were generated using Flp-In™ 293 system. Plasmid (0.3 μg) and pOG44 (4.7 μg) DNA were preincubated in 100 μL of Opti-MEM® I (Gibco®, Life Technologies™) media containing 0.05 mg/mL Lipofectamine® 2000 (Invitrogen™) for 20 min and added to Flp-In™ 293 cells containing 1.9 ml of DMEM media (Gibco®, Life Technologies™) per well in a 6-well plate format (Falcon, 353046). Cells were propagated after 48 h and transferred into a 10 cm^2 plate (Corning, 430165) in DMEM media containing 50 μg/mL of Hygromycin B (REF 10687010, Invitrogen™) as a selection marker. Following 2-3 passage cycle, FACS (FACSAria™ II, BD) was used to enrich for cells expressing eGFP and mCherry. Cells stably expressing the IKZF1Δ, IKZF2Δ, GSPT1 or SALL4 Znf1-2 GFP fusions with mCherry reporter were seeded at 30-50% confluency in 384-well plates with 50 μL FluoroBrite™ DMEM media (Thermo Fisher Scientific, A18967) containing 10% FBS per well a day before compound treatment. Compound titrations were dispensed using a D300e Digital Dispenser (HP), normalized to 0.5% DMSO, and incubated with cells for 5 hours. The assay plate was imaged immediately using an Acumen® High Content Imager (TTP Labtech) with 488 nm and 561 nm lasers in […] grid per well format.
The resulting images were analyzed using CellProfiler™. A series of image analysis steps (‘image analysis pipeline’) was constructed. First, the red and green channels were aligned and cropped to target the middle of each well (to avoid analysis of heavily clumped cells at the edges), and a background illumination function was calculated for both red and green channels of each well individually and subtracted to correct for illumination variations across the 384-well plate from various sources of error. An additional step was then applied to the green channel to suppress the analysis of large auto fluorescent artifacts and enhance the analysis of cell specific fluorescence by way of selecting for objects under a given size, 30 A.U., and with a given shape, speckles. mCherry-positive cells were then identified in the red channel filtering for objects between 8-60 pixels in diameter and using intensity to distinguish between clumped objects. The green channel was then segmented into GFP positive and negative areas and objects were labeled as GFP positive if at least 40% of it overlapped with a GFP positive area. The fraction of GFP-positive cells/mCherry-positive cells in each well was then calculated, and the green and red images were rescaled for visualization.

The next test addresses T2, IKZF1 (Homo sapiens, UniProt Q13422).
T2 construct: expressed in transfected cells; host or cells: Flp-In 293
Nature of the test: Cellular degradation assay, eGFP-IKZF1Δ fusion with mCherry reporter in Flp-In 293 cells. The format is cell-based. The note with it: 5 h incubation, n=1. A digest of the protocol: (§1)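 Flp-In 293 cells stably expressing eGFP-tagged degron fusions with P2A-mCherry reporter were treated with compound titrations (0.5% DMSO) for 5 hours. Imaging quantified GFP-positive/mCherry-positive cell fraction per well; DC50 at 5 h from nonlinear variable-slope fit.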

The target in another test is GSPT1 (Homo sapiens, UniProt P15170+Q96SW2). Nature of the test: Cellular degradation assay, eGFP-GSPT1 fusion with mCherry reporter in Flp-In 293 cells. The format is cell-based. The arrangement: expressed in transfected cells; host or cells: Flp-In 293. The note with it: 5 h incubation, n=1. A digest of the protocol:
as §1

The next test concerns IKZF2. Nature of the test: Cellular degradation assay, eGFP-IKZF2Δ fusion with mCherry reporter in Flp-In 293 cells. It is filed as cell-based. To be noted: 5 h incubation, n=1. A digest of the protocol: as §1
The target of the next test is T3, CRBN and Helios (IKZF2) (Homo sapiens, UniProt Q96SW2+Q9UKS7).
T3 construct: His (N); Strep (N)
Nature of the test: TR-FRET dimerization assay (CRBN-IKZF2 ternary complex formation). The format is binding. To be noted: n=1. A digest of the protocol: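 BODIPY-labeled DDB1ΔB-CRBN and in vitro biotinylated IKZF2 were treated with increasing compound concentrations plus tracer Terbium-Streptavidin and incubated 15 min at rt. Recruitment was quantified as the 520/490 nm TR-FRET ratio; values are single measurements (n=1), each averaged from at least three technical replicates.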
(Time-resolved FRET reads energy transfer from a long-lived donor to a nearby acceptor.)

Where [1] appears, read: compound concentration 2.00E−05.
The mark [2] stands for this setting: compound concentration 2.00E−06.
Setting [3] is: compound concentration 2.00E−07.
The mark [4] stands for this setting: compound concentration 6.6667E−05.
The mark [5] stands for this setting: compound concentration 6.6667E−06.
Setting [6] is: compound concentration 6.6667E−07 (667 nM).

T1 sequence (Q9UJQ4 378-438 limits assumed): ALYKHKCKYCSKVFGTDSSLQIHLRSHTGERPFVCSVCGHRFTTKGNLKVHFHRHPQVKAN
T1 sequence (Q96SW2 whole entry): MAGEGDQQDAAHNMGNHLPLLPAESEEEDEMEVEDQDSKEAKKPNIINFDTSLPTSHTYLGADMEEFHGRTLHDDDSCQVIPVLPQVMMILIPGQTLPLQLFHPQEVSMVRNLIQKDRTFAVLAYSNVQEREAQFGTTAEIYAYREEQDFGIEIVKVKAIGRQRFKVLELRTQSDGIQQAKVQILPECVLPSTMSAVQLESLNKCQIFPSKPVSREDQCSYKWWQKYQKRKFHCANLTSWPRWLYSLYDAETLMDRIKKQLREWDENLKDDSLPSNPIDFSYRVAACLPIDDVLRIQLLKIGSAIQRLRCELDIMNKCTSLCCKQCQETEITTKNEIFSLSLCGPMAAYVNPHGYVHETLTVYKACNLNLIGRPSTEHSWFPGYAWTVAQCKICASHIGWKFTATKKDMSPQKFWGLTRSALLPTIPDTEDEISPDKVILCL
T1 sequence (Q16531 whole entry partner): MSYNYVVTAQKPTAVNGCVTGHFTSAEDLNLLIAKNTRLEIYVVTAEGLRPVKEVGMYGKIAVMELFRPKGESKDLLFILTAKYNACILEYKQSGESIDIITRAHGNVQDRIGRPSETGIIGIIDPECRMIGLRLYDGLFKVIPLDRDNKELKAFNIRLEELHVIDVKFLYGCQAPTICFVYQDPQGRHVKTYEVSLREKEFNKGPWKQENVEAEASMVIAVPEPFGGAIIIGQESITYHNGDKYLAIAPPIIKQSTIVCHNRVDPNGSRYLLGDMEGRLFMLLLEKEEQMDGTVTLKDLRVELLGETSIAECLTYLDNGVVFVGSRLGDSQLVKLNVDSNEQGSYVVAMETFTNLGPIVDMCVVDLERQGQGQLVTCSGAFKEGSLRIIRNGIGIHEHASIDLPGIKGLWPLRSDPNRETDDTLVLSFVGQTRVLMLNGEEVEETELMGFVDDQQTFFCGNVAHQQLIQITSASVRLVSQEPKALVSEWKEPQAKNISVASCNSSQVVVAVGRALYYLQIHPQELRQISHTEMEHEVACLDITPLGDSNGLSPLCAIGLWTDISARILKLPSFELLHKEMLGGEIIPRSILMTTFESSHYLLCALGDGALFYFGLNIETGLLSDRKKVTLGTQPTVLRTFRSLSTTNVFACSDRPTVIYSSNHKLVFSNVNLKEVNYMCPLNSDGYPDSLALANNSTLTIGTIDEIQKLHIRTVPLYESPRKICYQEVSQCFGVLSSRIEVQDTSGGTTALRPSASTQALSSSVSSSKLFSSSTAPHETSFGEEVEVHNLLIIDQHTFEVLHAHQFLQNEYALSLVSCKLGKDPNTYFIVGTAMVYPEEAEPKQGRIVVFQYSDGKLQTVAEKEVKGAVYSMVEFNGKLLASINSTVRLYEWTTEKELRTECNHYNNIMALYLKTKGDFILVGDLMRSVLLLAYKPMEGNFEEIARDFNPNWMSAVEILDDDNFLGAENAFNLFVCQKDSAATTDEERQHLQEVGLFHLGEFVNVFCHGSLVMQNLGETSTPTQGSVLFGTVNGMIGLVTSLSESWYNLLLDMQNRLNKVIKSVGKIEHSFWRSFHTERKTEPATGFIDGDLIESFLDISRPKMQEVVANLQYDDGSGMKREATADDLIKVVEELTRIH
T3 sequence (Q96SW2 whole entry): as the sequence (Q96SW2 whole entry) above
T3 sequence (Q9UKS7 whole entry): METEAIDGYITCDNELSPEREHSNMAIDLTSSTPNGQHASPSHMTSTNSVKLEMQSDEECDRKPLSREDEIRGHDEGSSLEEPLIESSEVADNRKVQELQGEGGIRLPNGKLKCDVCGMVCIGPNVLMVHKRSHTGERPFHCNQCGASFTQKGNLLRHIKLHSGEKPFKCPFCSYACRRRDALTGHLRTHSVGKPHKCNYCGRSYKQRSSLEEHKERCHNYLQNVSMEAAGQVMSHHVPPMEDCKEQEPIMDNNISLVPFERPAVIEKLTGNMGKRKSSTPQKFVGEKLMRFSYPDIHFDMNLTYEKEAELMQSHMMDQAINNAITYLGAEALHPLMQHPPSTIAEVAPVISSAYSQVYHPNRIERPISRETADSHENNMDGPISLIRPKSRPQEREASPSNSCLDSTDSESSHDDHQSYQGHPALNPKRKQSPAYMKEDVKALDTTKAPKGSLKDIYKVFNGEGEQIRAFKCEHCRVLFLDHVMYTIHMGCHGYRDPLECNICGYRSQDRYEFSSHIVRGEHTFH
Chain of GSPT1 (P15170 whole entry, the tested form may be a part): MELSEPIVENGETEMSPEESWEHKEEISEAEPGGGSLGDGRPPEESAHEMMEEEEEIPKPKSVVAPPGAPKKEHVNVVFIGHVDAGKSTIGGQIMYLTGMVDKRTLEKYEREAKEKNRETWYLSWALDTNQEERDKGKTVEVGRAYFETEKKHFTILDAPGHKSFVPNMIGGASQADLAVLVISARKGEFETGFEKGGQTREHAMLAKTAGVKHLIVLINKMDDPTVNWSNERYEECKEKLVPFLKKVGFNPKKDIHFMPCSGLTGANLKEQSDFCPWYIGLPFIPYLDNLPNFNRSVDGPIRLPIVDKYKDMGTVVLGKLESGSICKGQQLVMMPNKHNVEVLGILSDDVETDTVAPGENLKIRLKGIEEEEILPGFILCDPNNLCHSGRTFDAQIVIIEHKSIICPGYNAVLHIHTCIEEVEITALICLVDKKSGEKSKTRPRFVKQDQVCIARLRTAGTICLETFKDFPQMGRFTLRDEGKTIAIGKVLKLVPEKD
Chain of GSPT1 (Q96SW2 whole entry, the tested form may be a part): as the sequence (Q96SW2 whole entry) above
Chain of GSPT1 (Q16531 whole entry partner, the tested form may be a part): as the sequence (Q16531 whole entry partner) above
T2 sequence (Q13422 83-213 isoform Q13422-7 limits assumed): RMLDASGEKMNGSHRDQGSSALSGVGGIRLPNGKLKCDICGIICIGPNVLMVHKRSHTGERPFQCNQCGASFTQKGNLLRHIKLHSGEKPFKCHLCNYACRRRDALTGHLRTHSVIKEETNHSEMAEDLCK
T2 sequence (Q96SW2 whole entry partner): as the sequence (Q96SW2 whole entry) above
T2 sequence (Q16531 2-1140 partner limits assumed): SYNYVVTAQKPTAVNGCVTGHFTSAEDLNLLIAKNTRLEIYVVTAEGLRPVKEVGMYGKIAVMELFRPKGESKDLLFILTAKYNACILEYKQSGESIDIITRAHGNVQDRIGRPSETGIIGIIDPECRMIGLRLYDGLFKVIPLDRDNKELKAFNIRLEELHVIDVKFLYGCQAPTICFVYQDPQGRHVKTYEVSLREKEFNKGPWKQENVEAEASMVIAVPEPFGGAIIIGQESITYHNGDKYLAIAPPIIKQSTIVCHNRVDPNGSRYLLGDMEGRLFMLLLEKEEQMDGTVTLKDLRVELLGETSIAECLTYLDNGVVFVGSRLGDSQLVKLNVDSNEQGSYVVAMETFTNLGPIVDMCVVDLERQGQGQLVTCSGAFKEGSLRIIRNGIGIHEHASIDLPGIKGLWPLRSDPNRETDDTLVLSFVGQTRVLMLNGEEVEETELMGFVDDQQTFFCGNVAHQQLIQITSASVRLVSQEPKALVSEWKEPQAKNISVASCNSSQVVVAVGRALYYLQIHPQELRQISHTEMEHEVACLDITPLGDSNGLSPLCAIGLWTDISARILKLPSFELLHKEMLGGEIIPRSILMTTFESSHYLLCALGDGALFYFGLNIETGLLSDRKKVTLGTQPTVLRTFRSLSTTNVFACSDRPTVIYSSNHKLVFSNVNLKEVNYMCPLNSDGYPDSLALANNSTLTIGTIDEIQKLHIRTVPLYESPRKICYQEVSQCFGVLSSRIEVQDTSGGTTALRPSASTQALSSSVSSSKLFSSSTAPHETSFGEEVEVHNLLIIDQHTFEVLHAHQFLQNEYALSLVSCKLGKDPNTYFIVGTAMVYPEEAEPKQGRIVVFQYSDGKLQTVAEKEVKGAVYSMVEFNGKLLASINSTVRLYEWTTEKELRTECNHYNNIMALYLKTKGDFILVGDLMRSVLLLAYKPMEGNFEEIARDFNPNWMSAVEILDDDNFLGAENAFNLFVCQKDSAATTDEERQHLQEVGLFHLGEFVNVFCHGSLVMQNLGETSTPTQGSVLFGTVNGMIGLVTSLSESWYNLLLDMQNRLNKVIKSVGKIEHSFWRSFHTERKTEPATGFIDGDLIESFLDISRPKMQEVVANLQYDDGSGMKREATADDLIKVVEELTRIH

For `O=C1CCC(N2C(=O)C=C(Nc3ccc(Cc4ccccc4)cc3)C2=O)C(=O)N1` (stereo not drawn) [Compound 39, 3-(3-((4-benzylphenyl)amino)-2,5-dioxo-2,5-dihydro-1H-pyrrol-1-yl)piperidine-2,6-dione], the “SALL4 ZNF1-2 GFP/RFP Relative Abundance” value at SALL4 ZNF1-2 (setting [1]) was found to be 1.110; on SALL4 ZNF1-2 (setting [2]) it was 1.006; on SALL4 ZNF1-2 (setting [3]), 1.043. Besides, the “IKZF1 GFP/RFP Relative Abundance” value at IKZF1 (setting [1]) is listed as 0.705; at IKZF1 (setting [2]), 0.691; on IKZF1 (setting [3]) it was 0.677. The “GSPT1 GFP/RFP Relative Abundance” value stood at 0.743 at GSPT1 (setting [1]), 0.813 on GSPT1 (setting [2]) and 0.830 at GSPT1 (setting [3]). The results for the “IKZF2 GFP/RFP Relative Abundance” value in the test with IKZF2 (setting [1]), in the test on IKZF2 (setting [2]) and in the test with IKZF2 (setting [3]) were 1.070, 1.008 and 1.047, respectively. Moreover, the “TR-FRET-IKZF2 (Normalized to CC-885)” value was determined as 0.271 on CRBN and Helios (IKZF2) (setting [4]); 0.230 on CRBN and Helios (IKZF2) (setting [5]); 0.174 at CRBN and Helios (IKZF2) (setting [6]).
On to `CCOC(=O)CN(C)C1=CC(=O)N(C2CCC(=O)NC2=O)C1=O` (stereo not drawn) [Compound 17, Ethyl N-(1-(2,6-dioxopiperidin-3-yl)-2,5-dioxo-2,5-dihydro-1H-pyrrol-3-yl)-N-methylglycinate], for which the “SALL4 ZNF1-2 GFP/RFP Relative Abundance” value at SALL4 ZNF1-2 (setting [1]) stood at 0.897; at SALL4 ZNF1-2 (setting [2]) it was 0.912; on SALL4 ZNF1-2 (setting [3]), 0.895. In addition, the “IKZF1 GFP/RFP Relative Abundance” value on IKZF1 (setting [1]) is 1.020; at IKZF1 (setting [2]), 1.018; at IKZF1 (setting [3]), 1.025. Also, the “GSPT1 GFP/RFP Relative Abundance” value at GSPT1 (setting [1]) came to 0.942; on GSPT1 (setting [2]), 1.001; on GSPT1 (setting [3]), 0.795. Also, the “IKZF2 GFP/RFP Relative Abundance” value with IKZF2 (setting [1]) stood at 1.006; with IKZF2 (setting [2]) it was 0.996; in the test on IKZF2 (setting [3]) it was 1.037. The “TR-FRET-IKZF2 (Normalized to CC-885)” value is on record as 0.043 at CRBN and Helios (IKZF2) (setting [4]); 0.032 at CRBN and Helios (IKZF2) (setting [5]); 0.015 on CRBN and Helios (IKZF2) (setting [6]).
On to `O=C1CCC(N2C(=O)C=C(Nc3ccc(Cl)cc3)C2=O)C(=O)N1` (stereo not drawn) [Compound 25, 3-(3-((4-chlorophenyl)amino)-2,5-dioxo-2,5-dihydro-1H-pyrrol-1-yl)piperidine-2,6-dione], for which the “SALL4 ZNF1-2 GFP/RFP Relative Abundance” value on SALL4 ZNF1-2 (setting [1]) is given as 0.831; at SALL4 ZNF1-2 (setting [2]), 0.897; on SALL4 ZNF1-2 (setting [3]), 0.887. The “IKZF1 GFP/RFP Relative Abundance” value at IKZF1 (setting [1]) was 0.258; on IKZF1 (setting [2]) it was 0.298; on IKZF1 (setting [3]), 0.341. Moreover, the “GSPT1 GFP/RFP Relative Abundance” value at GSPT1 (setting [1]) turned out to be 1.019; at GSPT1 (setting [2]) it was 1.233; on GSPT1 (setting [3]), 1.201. The “IKZF2 GFP/RFP Relative Abundance” value in the test on IKZF2 (setting [1]) is recorded as 0.966; in the test on IKZF2 (setting [2]), 0.978; with IKZF2 (setting [3]), 0.955. In addition, the “TR-FRET-IKZF2 (Normalized to CC-885)” value was 0.339 on CRBN and Helios (IKZF2) (setting [4]); 0.282 at CRBN and Helios (IKZF2) (setting [5]); 0.230 at CRBN and Helios (IKZF2) (setting [6]).
With `Cc1ccc(NC(=O)Nc2ccc(NC3=CC(=O)N(C4CCC(=O)NC4=O)C3=O)cc2)cc1Cl` (stereo not drawn) [Compound 42, 1-(3-chloro-4-methylphenyl)-3-(4-((1-(2,6-dioxopiperidin-3-yl)-2,5-dioxo-2,5-dihydro-1H-pyrrol-3-yl)amino)phenyl)urea], the figures for the “SALL4 ZNF1-2 GFP/RFP Relative Abundance” value at SALL4 ZNF1-2 (setting [1]), on SALL4 ZNF1-2 (setting [2]) and on SALL4 ZNF1-2 (setting [3]) were 1.122, 0.997 and 1.018, respectively. The “IKZF1 GFP/RFP Relative Abundance” value at IKZF1 (setting [1]) is 0.775; on IKZF1 (setting [2]), 0.536; at IKZF1 (setting [3]), 0.577. In addition, the entries for the “GSPT1 GFP/RFP Relative Abundance” value at GSPT1 (setting [1]), at GSPT1 (setting [2]) and on GSPT1 (setting [3]) were 0.118, 0.182 and 0.215, respectively. Moreover, the “IKZF2 GFP/RFP Relative Abundance” value came out at 1.056 with IKZF2 (setting [1]), 1.050 in the test on IKZF2 (setting [2]) and 0.999 in the test with IKZF2 (setting [3]). For the same molecule, the “TR-FRET-IKZF2 (Normalized to CC-885)” value on CRBN and Helios (IKZF2) (setting [4]) was 0.407; at CRBN and Helios (IKZF2) (setting [5]), 0.318; at CRBN and Helios (IKZF2) (setting [6]) it was 0.209.
`COC(=O)CNC1=CC(=O)N(C2CCC(=O)NC2=O)C1=O` (stereo not drawn) [Compound 13, Methyl (1-(2,6-dioxopiperidin-3-yl)-2,5-dioxo-2,5-dihydro-1H-pyrrol-3-yl)glycinate]: the “SALL4 ZNF1-2 GFP/RFP Relative Abundance” value is 0.962 at SALL4 ZNF1-2 (setting [1]), 1.017 at SALL4 ZNF1-2 (setting [2]) and 1.017 on SALL4 ZNF1-2 (setting [3]). Further, the “IKZF1 GFP/RFP Relative Abundance” value on IKZF1 (setting [1]) is on record as 1.069; on IKZF1 (setting [2]), 1.076; at IKZF1 (setting [3]), 1.058. Further, the “GSPT1 GFP/RFP Relative Abundance” value at GSPT1 (setting [1]) is recorded as 1.172; at GSPT1 (setting [2]) it was 1.162; at GSPT1 (setting [3]) it was 1.004. The “IKZF2 GFP/RFP Relative Abundance” value in the test with IKZF2 (setting [1]) stood at 1.040; in the test with IKZF2 (setting [2]) it was 1.005; with IKZF2 (setting [3]), 1.070. Besides, the “TR-FRET-IKZF2 (Normalized to CC-885)” value was 0.032 at CRBN and Helios (IKZF2) (setting [4]); 0.028 at CRBN and Helios (IKZF2) (setting [5]); 0.019 on CRBN and Helios (IKZF2) (setting [6]).
Consider `O=C1CCC(N2C(=O)C=C(Nc3cnc4ccccc4c3)C2=O)C(=O)N1` (stereo not drawn) [Compound 27, 3-(2,5-dioxo-3-(quinolin-3-ylamino)-2,5-dihydro-1H-pyrrol-1-yl)piperidine-2,6-dione], for which the “SALL4 ZNF1-2 GFP/RFP Relative Abundance” value is given as 1.026 on SALL4 ZNF1-2 (setting [1]), 1.005 on SALL4 ZNF1-2 (setting [2]) and 0.913 at SALL4 ZNF1-2 (setting [3]). For the same molecule, the “IKZF1 GFP/RFP Relative Abundance” value on IKZF1 (setting [1]) turned out to be 0.701; on IKZF1 (setting [2]), 0.776; on IKZF1 (setting [3]), 0.801. The “GSPT1 GFP/RFP Relative Abundance” value turned out to be 0.881 at GSPT1 (setting [1]), 1.083 on GSPT1 (setting [2]) and 0.987 at GSPT1 (setting [3]). The “IKZF2 GFP/RFP Relative Abundance” value is reported as 1.004 in the test on IKZF2 (setting [1]), 0.990 in the test on IKZF2 (setting [2]) and 0.931 with IKZF2 (setting [3]). Besides, the “TR-FRET-IKZF2 (Normalized to CC-885)” value was 0.137 on CRBN and Helios (IKZF2) (setting [4]); 0.105 on CRBN and Helios (IKZF2) (setting [5]); 0.084 at CRBN and Helios (IKZF2) (setting [6]).

Values taken from US12227488B2, “Small molecule degraders of Helios and methods of use” (DANA-FARBER CANCER INSTITUTE, INC., priority 2018, dated 2025).
